Data reported in patent US6465440B2, “Antimutagenic compositions for treatment and prevention of photodamage to skin” (Wellstat Therapeutics Corporation, priority 1997, dated 2002).

Experiments:
human fibroblasts [1] = experiment: Individual versus combined deoxyribonucleosides on photodynamically enhanced UV-induced DNA strand breaks; format: cell-based; conditions: UV with 2 μM oxybenzone; individual compounds 20 μM, combination 20 μM each; UV + vehicle .325
Protocol: Confluent human fibroblasts were exposed to 2 micromolar oxybenzone (OB), as in Example 3, prior to exposure to UV-B radiation (50 J/m^2). Different flasks of cells also were exposed to increasing concentrations of deoxyribonucleosides. Cells were processed for determination of nucleoid position in a sucrose density gradient, a measure of DNA single strand breaks. […] Individual deoxyribonucleosides were tested at concentrations of 20 μM, and the combination of all four deoxyribonucleosides contained thymidine, deoxycytidine. deoxyadenosine and deoxyguanosine at 20 μM each.

v-Ha-ras TG.AC mice = experiment: Individual deoxyribonucleosides versus combination on UV-induced tumorigenesis in v-Ha-ras TG.AC mice; format: in vivo, mouse; conditions: UV 1.25 kJ/m^2 on days 0, 6, 8 and 11; 4 mg/ml (each) in propylene glycol beginning 30 minutes after irradiation; vehicle 1.8
Protocol: Thirty v-Ha-ras TG.AC mice aged twelve weeks were shaved and subjected to ultraviolet radiation, 1.25 kJ/m^2 on days 0, 6, 8 and 11, at a dose rate of 12.5 W/m2. Mice were divided into groups of five animals each and treated, beginning 30 minutes after irradiation, with: 1. Vehicle (propylene glycol) 2.

Human melanocytes = experiment: Nitric oxide-induced DNA strand breaks with or without UV (pulsed field gel electrophoresis); format: cell-based
Protocol: Human melanocytes were exposed to 160 μM DETA NONOate (Alexis Corporation, Cat #430-014-M005), a reagent which spontaneously produces nitric oxide when exposed to water. Cells were exposed to NO alone, or NO plus increasing doses of UV radiation (50 and 300 J/m^2). Groups of cells were also exposed to deoxyribonucleosides of the invention before, or before and after, exposure to NO or NO+UV radiation; control groups were treated identically except for addition of deoxyribonucleosides.
DNA was extracted from cells and subjected to pulsed field gel electrophoresis to determine the incidence of DNA strand breaks.

human fibroblasts [2] = experiment: Photodynamic enhancement of DNA damage by UV plus oxybenzone, attenuation by deoxyribonucleosides (nucleoid position); format: cell-based; conditions: UV + 2 μM OB, no dNsides
Protocol: (§1) Confluent human fibroblasts in T25 flasks were washed 3 times with HBSS (Hank's Balanced Salt Solution) and incubated with vehicle or with various concentrations of oxybenzone (OB) for 2 hours. Media was aspirated and cells were covered with a 1 mm layer of HBSS and irradiated from above with UV-B (50 J/m^2). The medium was aspirated and cells were incubated for three hours with 2 mM hydroxyurea. Medium was again aspirated, and cells were trypsinized with 0.25% trypsin/EDTA. Cells were centrifuged at 4° C., resuspended in 50 microliters of HBSS and incubated at room temperature with 200 microliters of 1N NaOH for 15 minutes. DNA damage (single strand breaks) was assessed by alkaline sucrose gradient centrifugation. “Nucleoid position” in the sucrose gradient is proportional to the number of DNA single strand breaks.
Confluent human fibroblasts were exposed to 2 micromolar oxybenzone (OB), as in Example 3, prior to exposure to UV-B radiation (50 J/m^2). Different flasks of cells also were exposed to increasing concentrations of deoxyribonucleosides. Cells were processed for determination of nucleoid position in a sucrose density gradient, a measure of DNA single strand breaks.

human fibroblasts [3] = experiment: UV-induced DNA single strand breaks (nucleoid position, alkaline sucrose gradient) with oxybenzone; format: cell-based
Protocol: as §1

| Compound | DNA Strand Breaks (human fibroblasts [1]) | Papillomas/mouse at the end of 8 weeks (v-Ha-ras TG.AC mice) [Papillomas/mouse] | further results |
| --- | --- | --- | --- |
| Cc1cn([C@H]2C[C@H](O)[C@@H](CO)O2)c(=O)[nH]c1=O [thymidine, Thymidine] | .13 Breaks/47 MDa | 1.6 | – |
| [N]=O [NO, Nitric oxide] | – | – | DNA Strand Breaks (Human melanocytes; NO + UV 50 J/m^2): 0.21 breaks/105 MDa; DNA Strand Breaks (Human melanocytes; NO + UV 300 J/m^2): 0.51 breaks/105 MDa; DNA Strand Breaks (Human melanocytes; NO alone (160 μM DETA NONOate)): 0.13 breaks/105 MDa |
| Nc1ccn([C@H]2C[C@H](O)[C@@H](CO)O2)c(=O)n1 [deoxycytidine, Deoxycytidine] | .12 Breaks/47 MDa | 0.25 | – |
| COc1ccc(C(=O)c2ccccc2)c(O)c1 [OB, oxybenzone (benzophenone-3)] | – | – | Nucleoid Position (human fibroblasts [2]): 56 mm; Nucleoid Position (human fibroblasts [3]; UV 50 J/m^2 + 2 μM OB, 2 hours preincubation): 32 mm; Nucleoid Position (human fibroblasts [3]; UV 50 J/m^2 + 20 μM OB): 4 mm; Nucleoid Position (human fibroblasts [3]; UV 50 J/m^2 + 200 μM OB): 3 mm; Nucleoid position relative to non-irradiated cells (human fibroblasts [3]; UV 50 J/m^2 + 2 micromolar OB): 10 fold |
| Nc1ncnc2c1ncn2[C@H]1C[C@H](O)[C@@H](CO)O1 [deoxyadenosine, Deoxyadenosine] | .17 Breaks/47 MDa | 0.67 | – |
| Nc1nc2c(ncn2[C@H]2C[C@H](O)[C@@H](CO)O2)c(=O)[nH]1 [deoxyguanosine, Deoxyguanosine] | .17 Breaks/47 MDa | 1.0 | – |
